The values that follow come from the RepoRT retention time repository (doi:10.1021/acs.analchem.2c02893).

The series in a line: RP, Thermo Scientific Acclaim RSLC 120 C18, 100 × 2.1 mm, 2.2 µm, 30 °C, 0.2 mL/min, estimated dead time 1.1 min; A: 90% water + 10% methanol + 0.01% formic acid + 5 mM ammonium formate, pH 3.61; B: methanol + 0.01% formic acid + 5 mM ammonium formate, pH 3.61; gradient (min/%B) 0/1 1/1 2/39 13/99.9 15/99.9 15.1/1 20.1/1. The settings on record: stereoisomer not certain.
For the compound `CCOP(=O)(OCC)Oc1cc(C)nc(C(C)C)n1` [Diazinon-O-analog], the LC retention time is 8.65 min.
For `CCNC1(c2cccc(OC)c2)CCCCC1=O` (centres undefined) [Methoxetamine] the value was 4.93 min; for `O=C(O)CCCOc1ccc(Cl)cc1Cl` [2.4-DB], 10 min; for `CCOC(=O)C(CCc1ccccc1)NC(C)C(=O)N1Cc2ccccc2CC1C(=O)O` (centres undefined) [Quinapril], 9.03 min.
With `CCCCn1cc(C(=O)c2cccc3ccccc23)c2cc(O)ccc21` [JWH-073-M-5-OH-Ind], the LC retention time was 11.3 min.
Turning to `O=c1[nH]c2c(c(=O)n1C1CCCCC1)CCC2` [Lenacil], the LC retention time is 8.27 min.
Regarding `CCOc1ccccc1OS(=O)(=O)NC(=O)Nc1nc(OC)cc(OC)n1` [Ethoxysulfuron], the LC retention time was 9.32 min.
For the compound `COP(=S)(OC)Oc1ccc([N+](=O)[O-])cc1Cl` [Dicapthon], the LC retention time is 10.5 min.
`CCCCc1oc2ccc(NS(C)(=O)=O)cc2c1C(=O)c1ccc(OCCCN(CCCC)CCCC)cc1` [Dronedarone]: the LC retention time is 10.1 min.
Turning to `CCOc1cc(NC(C)=O)ccc1C(=O)OC` [Ethopabate], the LC retention time is 6.63 min.
Regarding `CCCCSP(=O)(SCCCC)SCCCC` [Tribufos (Merphos oxide. DEF)], the LC retention time was 13.4 min.
Regarding `CN(C)C(=O)C(c1ccccc1)c1ccccc1` [Diphenamide], the LC retention time was 8.57 min.
On to `Cc1c(OCC(F)(F)F)ccnc1CS(=O)c1nc2ccccc2[nH]1` (centres undefined) [Lansoprazole], for which the LC retention time was 8.38 min.
For `COc1cc2c(cc1OC)C13CCN4CC5=CCOC6CC(=O)N2C1C6C5CC43` (centres undefined) [Brucine], the LC retention time was 4.21 min.
As for `CCOC(=O)C(C)Oc1ccc(Oc2cnc3cc(Cl)ccc3n2)cc1` (centres undefined) [Quizalofop-ethyl], the LC retention time was 12.1 min.
In the case of `CNCC1CCCCC1(O)c1cccc(OC)c1` (centres undefined) [Tramadol-Nor (Tramadol-N-desmethyl)], the LC retention time was 5.3 min.
Turning to `O=C1CN=C(c2ccccc2F)c2cc([N+](=O)[O-])ccc2N1` [Flunitrazepam-N-Desmethyl (Norflunitrazepam)], the LC retention time is 7.35 min.
To `C#CC1(O)C=CC2C3CCC4=CC(=O)CCC4C3CCC21CC` (centres undefined) [Gestoden] belongs 9.46 min; to `Cc1nc(C)c(Cl)c(NS(=O)(=O)c2ccc(N)cc2)n1` [Sulfaclomide], 3.96 min; to `COC(=O)C(NC(=O)c1cn(CCCCCF)c2ccccc12)C(C)C` (centres undefined) [MMB-2201], 10 min.
To `CNCC(O)c1cccc(O)c1` (stereo not drawn) [Phenylephrine (broad peak)] belongs 1.93 min; to `O=C1OCCN1N=Cc1ccc([N+](=O)[O-])o1` [Furazolidone], 4.19 min; to `COC(=O)C1=COC(C)C2CN3CCc4c([nH]c5ccccc45)C3CC12` (centres undefined) [Raubasine], 6.66 min.
Take `Cc1nnc2n1-c1ccc(Br)cc1C(c1ccccc1F)=NC2` [Flubromazolam]: the LC retention time is 8.04 min.
To `Cc1cnc(NC(=O)C2=C(O)c3ccccc3S(=O)(=O)N2C)s1` [Meloxicam] belongs 7.09 min; to `COc1cc(NS(=O)(=O)c2ccc(N)cc2)ncn1` [Sulfamonomethoxine], 4.75 min; to `COc1ccsc1CN(C(=O)CCl)c1c(C)cccc1C` [Thenylchlor], 10.1 min.
Take `CC1(C)CCC(=Cc2ccc(Cl)cc2)C1(O)Cn1cncn1` (centres undefined) [Triticonazole]: the LC retention time was 10.1 min.
For `CCCCOCN(C(=O)CCl)c1c(CC)cccc1CC` [Butachlor] the value was 12.3 min; for `CCOP(=O)(NC(C)C)Oc1ccc(S(C)(=O)=O)c(C)c1` (centres undefined) [Fenamiphos - sulfone], 7.21 min.
On to `CCOc1cc(OP(=S)(OC)OC)nc(CC)n1` [Etrimfos], for which the LC retention time was 11 min.
To `Cc1[nH]c(C)c(Cl)c(=O)c1Cl` [Clopidol] belongs 4.2 min; to `Cc1nnc(NS(=O)(=O)c2ccc(N)cc2)s1` [Sulfamethizole], 4.21 min.
Turning to `CC(C)(C)C(NC(=O)c1nn(CCCCCF)c2ccccc12)C(N)=O` (centres undefined) [ADB-PINACA-5F], the LC retention time was 9.86 min.
`C[N+](C)(C)CCCl` [Chlormequat]: the LC retention time is 1.67 min.
`CNC(C)CC1CCCCC1` (centres undefined) [Levopropylhexedrine]: the LC retention time is 5.74 min.
Regarding `COP(=S)(NC(C)C)Oc1ccccc1C(=O)OC(C)C` (centres undefined) [Isofenphos-methyl], the LC retention time was 11.7 min.
Consider `CCCCCCCn1cc(C(=O)c2cccc3ccccc23)c2ccccc21` [JWH-020], for which the LC retention time is 13.4 min.
Regarding `CCCCCn1cc(C(=O)Cc2cccc(OC)c2)c2ccccc21` [JWH-302], the LC retention time was 11.6 min.
`CC1COCc2cc3c(cc21)C(C)(C)C(C)C3(C)C` (centres undefined) [Galaxolide]: the LC retention time was 13.9 min.
To `CCC(C)N(C(=O)SCc1ccccc1)C(C)CC` (centres undefined) [Tiocarbazil] belongs 12.8 min.
To `CCCCNc1ccc(C(=O)OCCN(C)C)cc1` [Tetracaine] belongs 6.43 min.
For the compound `CN1C(=O)CN=C(C2=CCCCC2)c2cc(Cl)ccc21` [Tetrazepam], the LC retention time was 10.5 min.
For `CNCCC(Oc1ccccc1C)c1ccccc1` (centres undefined) [Atomoxetine] the value was 7.63 min; for `CCOP(=S)(OCC)Oc1cc(Cl)c(Br)cc1Cl` [Bromophos-ethyl], 13.5 min; for `CC(C)CC(CN)CC(=O)O` (centres undefined) [Pregabalin], 3.88 min.
To `COC(=O)COc1ccc(Cl)cc1C` [MCPA-methylester] belongs 9.85 min; to `CNC(=O)ON=CC(C)(C)S(C)(=O)=O` [Aldicarb-sulfone (Aldoxycarb)], 3.75 min; to `CNCCC=C1c2ccccc2CCc2ccccc21` [Triptyline-Nor], 8.51 min.
To `CCOP(=O)(SC(C)CC)SC(C)CC` (centres undefined) [Cadusafos] belongs 11.5 min; to `NC(N)=NN=Cc1c(Cl)cccc1Cl` [Guanabenz], 5.61 min.
Turning to `O=S1(=O)OCC2C(CO1)C1(Cl)C(Cl)=C(Cl)C2(Cl)C1(Cl)Cl` (centres undefined) [Endosulfan-sulfate], the LC retention time is 11.1 min.
With `CCCc1nn(C)c2c(=O)[nH]c(-c3cc(C(=O)CN4CCN(CC)C(=O)C4=O)ccc3OCC)nc12` [Dioxohongdenafil], the LC retention time was 8.18 min.
Turning to `O=C(O)Cc1cn(-c2ccccc2)nc1-c1ccc(Cl)cc1` [Lonazolac], the LC retention time was 10.4 min.
Turning to `Cn1cc(-c2ccccc2)c(=O)c(-c2cccc(C(F)(F)F)c2)c1` [Fluridone], the LC retention time was 8.82 min.
On to `Nc1nc2c(ncn2COCCO)c(=O)[nH]1` [Aciclovir], for which the LC retention time was 2.34 min.
Consider `COc1cc(CCN)c(OC)cc1I` [2C-I], for which the LC retention time is 6.06 min.
To `CCN(CC)C(=O)C(C)Oc1cccc2ccccc12` (centres undefined) [Napropamide] belongs 10.2 min; to `Cc1cc(C(C)(C)C)c(O)c(C)c1CC1=NCCN1` [Oxymetazoline], 6.99 min.
Consider `CC[N+]1(C)C2CC(OC(=O)C(CO)c3ccccc3)CC1C1OC12` (centres undefined) [Oxitropium], for which the LC retention time was 3.87 min.
`CN(C)c1ccc(C(c2ccccc2)c2ccc(N(C)C)cc2)cc1` [Leuco malachite green (LMG)]: the LC retention time is 13.7 min.
With `COC(=O)C(Cl)Cc1ccc(Cl)cc1` (centres undefined) [Chlorfenprop-methyl], the LC retention time is 10.2 min.
In the case of `Cc1c(C=O)c(=O)n(-c2ccccc2)n1C` [4-Formyl-antipyrine], the LC retention time was 3.98 min.
For the compound `NS(=O)(=O)c1cc(C2(O)NC(=O)c3ccccc32)ccc1Cl` (centres undefined) [Chlorthalidone], the LC retention time was 5.06 min.
Regarding `CCCCCn1cc(C(=O)c2cccc3ccccc23)c2ccc(O)cc21` [JWH-018-M-6-OH-Ind], the LC retention time was 11.2 min.
As for `CCCCCCCCCCCCNC` [N-Methyldodecylamine], the LC retention time is 10.5 min.
For the compound `CC(C)N(C(=O)CCl)c1ccccc1` [Propachlor], the LC retention time is 8.25 min.
`Nc1ccc([N+](=O)[O-])cc1C(=O)c1ccccc1` [Benzophenone -2-Amino-5-nitro]: the LC retention time is 8.99 min.
Regarding `CCNP(=S)(OC)OC(C)=CC(=O)OC(C)C` (centres undefined) [Propetamphos], the LC retention time was 9.79 min.
In the case of `CCOP(=S)(OCC)SCSc1ccc(Cl)cc1` [Carbophenothion], the LC retention time was 12.9 min.
For `NC1CCc2cc3c(cc2C1)OCO3` (centres undefined) [MDAT], the LC retention time is 4.32 min.
On to `C#CC(C)(C)NC(=O)c1cc(Cl)cc(Cl)c1` [Propyzamide (Pronamide)], for which the LC retention time was 9.69 min.
With `CCCCCn1cc(C(=O)c2cccc3ccccc23)c2cccc(O)c21` [JWH-018-M-7-OH-Ind], the LC retention time is 11.8 min.
With `CC(O)CCCn1cc(C(=O)c2cccc3ccccc23)c2ccccc21` (centres undefined) [JWH-018-M-N-4-OH-Pentyl], the LC retention time is 10.1 min.
As for `CNC(C)C(O)c1ccc(O)cc1` (centres undefined) [Synphrine-Methyl], the LC retention time is 2.05 min.
Take `CCCCn1cc(C(=O)c2cccc3ccccc23)c2ccc(O)cc21` [JWH-073-M-6-OH-Ind]: the LC retention time is 10.6 min.
With `CN(C)CCC=C1c2ccccc2CSc2ccccc21` [Dosulepin], the LC retention time is 7.61 min.
As to `Nc1nc(N)nc(Cl)n1` [Atrazine-desethyl-desisopropyl], the LC retention time was 3.03 min.
For `CC(N)Cc1ccc(O)cc1` (centres undefined) [Amphetamine-P-hydroxy], the LC retention time is 2.98 min.
